Key:
Acetylcholinesterase = Acetylcholinesterase (Homo sapiens, UniProt P22303); type: functional
[1] = biological target: T1, Alpha-2A adrenergic receptor (Homo sapiens, UniProt P08913)
T1 sequence (P08913 whole entry): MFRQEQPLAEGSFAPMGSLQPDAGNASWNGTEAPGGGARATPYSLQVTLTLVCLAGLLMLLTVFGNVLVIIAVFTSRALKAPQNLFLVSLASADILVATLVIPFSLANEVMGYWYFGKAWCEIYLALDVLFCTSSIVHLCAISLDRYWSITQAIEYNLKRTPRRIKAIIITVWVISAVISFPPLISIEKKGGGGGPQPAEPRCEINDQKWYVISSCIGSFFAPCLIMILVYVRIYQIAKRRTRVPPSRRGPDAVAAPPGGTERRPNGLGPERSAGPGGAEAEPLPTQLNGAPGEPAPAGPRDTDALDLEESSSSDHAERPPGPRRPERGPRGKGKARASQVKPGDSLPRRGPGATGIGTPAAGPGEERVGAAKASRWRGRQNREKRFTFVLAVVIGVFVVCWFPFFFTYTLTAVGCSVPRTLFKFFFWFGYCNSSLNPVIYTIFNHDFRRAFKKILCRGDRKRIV

[2] = biological target: T2, Muscarinic acetylcholine receptor M2 (Homo sapiens, UniProt P08172)
T2 sequence (P08172 whole entry): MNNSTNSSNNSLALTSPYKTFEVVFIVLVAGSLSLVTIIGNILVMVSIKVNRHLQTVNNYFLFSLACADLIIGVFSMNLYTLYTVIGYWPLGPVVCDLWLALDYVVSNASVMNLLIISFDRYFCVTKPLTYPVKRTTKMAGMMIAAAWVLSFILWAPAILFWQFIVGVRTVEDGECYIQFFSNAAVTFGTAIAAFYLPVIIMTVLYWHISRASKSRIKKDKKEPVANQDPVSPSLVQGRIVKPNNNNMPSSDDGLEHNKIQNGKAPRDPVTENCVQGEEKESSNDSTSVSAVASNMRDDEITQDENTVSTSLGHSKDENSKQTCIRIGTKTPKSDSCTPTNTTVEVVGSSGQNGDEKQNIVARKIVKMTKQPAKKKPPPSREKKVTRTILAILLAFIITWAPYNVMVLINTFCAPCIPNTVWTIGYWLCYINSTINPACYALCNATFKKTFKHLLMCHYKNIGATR

D(3) dopamine receptor = D(3) dopamine receptor (Homo sapiens, UniProt P35462)
Chain of D(3) dopamine receptor (P35462 whole entry): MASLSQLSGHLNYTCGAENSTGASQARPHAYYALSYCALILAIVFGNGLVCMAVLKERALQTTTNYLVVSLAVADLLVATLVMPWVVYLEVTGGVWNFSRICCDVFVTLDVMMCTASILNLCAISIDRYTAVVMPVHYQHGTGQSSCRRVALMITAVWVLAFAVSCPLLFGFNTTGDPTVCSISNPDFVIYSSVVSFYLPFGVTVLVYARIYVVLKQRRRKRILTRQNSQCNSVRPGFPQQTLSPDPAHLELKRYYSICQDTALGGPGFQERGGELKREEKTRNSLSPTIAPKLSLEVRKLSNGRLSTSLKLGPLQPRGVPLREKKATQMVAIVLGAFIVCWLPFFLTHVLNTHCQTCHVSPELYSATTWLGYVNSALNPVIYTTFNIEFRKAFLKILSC

Prothrombin = Prothrombin (Homo sapiens, UniProt P00734); type: functional
[3] = biological target: T3, 5-hydroxytryptamine receptor 1A (Homo sapiens, UniProt P08908)
T3 sequence (P08908 whole entry): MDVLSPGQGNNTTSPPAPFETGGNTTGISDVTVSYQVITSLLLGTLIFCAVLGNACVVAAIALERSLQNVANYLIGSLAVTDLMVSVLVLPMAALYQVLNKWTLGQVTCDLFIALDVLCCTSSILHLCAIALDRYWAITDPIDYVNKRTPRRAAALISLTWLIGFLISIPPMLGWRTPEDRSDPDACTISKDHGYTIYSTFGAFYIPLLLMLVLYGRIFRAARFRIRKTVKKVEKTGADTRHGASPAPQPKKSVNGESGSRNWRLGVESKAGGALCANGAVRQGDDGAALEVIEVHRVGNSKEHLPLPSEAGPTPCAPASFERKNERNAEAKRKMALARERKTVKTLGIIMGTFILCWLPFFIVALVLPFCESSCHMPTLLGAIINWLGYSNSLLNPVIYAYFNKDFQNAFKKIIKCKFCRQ

[4] = biological target: T4, Amine oxidase [flavin-containing] A (Homo sapiens, UniProt P21397); type: functional
T4 sequence (P21397 whole entry): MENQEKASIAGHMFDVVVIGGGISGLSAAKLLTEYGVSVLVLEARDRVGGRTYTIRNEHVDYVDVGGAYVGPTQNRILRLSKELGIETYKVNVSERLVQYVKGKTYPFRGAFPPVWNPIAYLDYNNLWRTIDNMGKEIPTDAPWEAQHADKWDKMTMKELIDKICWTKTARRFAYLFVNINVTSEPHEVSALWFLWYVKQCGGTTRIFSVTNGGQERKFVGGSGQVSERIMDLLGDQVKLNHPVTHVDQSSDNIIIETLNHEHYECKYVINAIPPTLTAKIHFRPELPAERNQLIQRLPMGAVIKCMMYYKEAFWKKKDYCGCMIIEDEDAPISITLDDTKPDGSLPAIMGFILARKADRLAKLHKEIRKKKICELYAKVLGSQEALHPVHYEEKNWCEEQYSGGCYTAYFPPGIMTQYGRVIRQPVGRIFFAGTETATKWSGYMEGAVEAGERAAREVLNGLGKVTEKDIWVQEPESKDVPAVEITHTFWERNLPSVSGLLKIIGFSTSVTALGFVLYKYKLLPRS

[5] = biological target: cGMP-inhibited 3',5'-cyclic phosphodiesterase 3A (Homo sapiens, UniProt Q14432); type: functional
Chain of cGMP-inhibited 3',5'-cyclic phosphodiesterase 3A (Q14432 whole entry): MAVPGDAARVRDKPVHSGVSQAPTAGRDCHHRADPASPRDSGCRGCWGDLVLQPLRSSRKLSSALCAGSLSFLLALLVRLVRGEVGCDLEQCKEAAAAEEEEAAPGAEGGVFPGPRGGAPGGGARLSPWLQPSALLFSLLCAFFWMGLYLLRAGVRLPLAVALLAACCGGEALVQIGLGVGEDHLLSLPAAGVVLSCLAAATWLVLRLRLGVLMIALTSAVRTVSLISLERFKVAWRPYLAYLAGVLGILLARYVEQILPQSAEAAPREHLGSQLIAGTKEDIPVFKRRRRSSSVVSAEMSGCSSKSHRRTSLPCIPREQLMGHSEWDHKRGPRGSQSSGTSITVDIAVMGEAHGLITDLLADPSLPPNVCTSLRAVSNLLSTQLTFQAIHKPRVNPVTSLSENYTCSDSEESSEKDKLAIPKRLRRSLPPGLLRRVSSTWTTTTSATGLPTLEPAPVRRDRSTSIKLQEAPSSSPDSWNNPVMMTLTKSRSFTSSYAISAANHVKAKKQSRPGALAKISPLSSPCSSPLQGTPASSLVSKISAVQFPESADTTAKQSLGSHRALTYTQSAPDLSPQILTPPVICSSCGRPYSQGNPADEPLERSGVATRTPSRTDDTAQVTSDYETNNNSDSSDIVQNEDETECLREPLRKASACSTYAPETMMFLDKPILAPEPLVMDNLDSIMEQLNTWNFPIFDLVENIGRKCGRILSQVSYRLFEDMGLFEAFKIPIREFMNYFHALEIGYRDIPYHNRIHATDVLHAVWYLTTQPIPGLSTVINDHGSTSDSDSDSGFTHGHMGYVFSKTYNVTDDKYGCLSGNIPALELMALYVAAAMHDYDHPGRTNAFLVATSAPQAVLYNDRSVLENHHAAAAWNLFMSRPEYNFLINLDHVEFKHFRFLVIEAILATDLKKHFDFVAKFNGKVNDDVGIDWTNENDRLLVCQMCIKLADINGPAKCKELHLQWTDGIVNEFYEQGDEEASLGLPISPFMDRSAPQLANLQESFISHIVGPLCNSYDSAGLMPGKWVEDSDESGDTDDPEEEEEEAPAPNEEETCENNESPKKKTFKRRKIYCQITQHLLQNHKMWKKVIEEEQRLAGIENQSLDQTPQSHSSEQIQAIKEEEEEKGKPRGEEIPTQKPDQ

[6] = biological target: 3',5'-cyclic-AMP phosphodiesterase 4A (Homo sapiens, UniProt P27815); type: functional
Chain of 3',5'-cyclic-AMP phosphodiesterase 4A (P27815 whole entry): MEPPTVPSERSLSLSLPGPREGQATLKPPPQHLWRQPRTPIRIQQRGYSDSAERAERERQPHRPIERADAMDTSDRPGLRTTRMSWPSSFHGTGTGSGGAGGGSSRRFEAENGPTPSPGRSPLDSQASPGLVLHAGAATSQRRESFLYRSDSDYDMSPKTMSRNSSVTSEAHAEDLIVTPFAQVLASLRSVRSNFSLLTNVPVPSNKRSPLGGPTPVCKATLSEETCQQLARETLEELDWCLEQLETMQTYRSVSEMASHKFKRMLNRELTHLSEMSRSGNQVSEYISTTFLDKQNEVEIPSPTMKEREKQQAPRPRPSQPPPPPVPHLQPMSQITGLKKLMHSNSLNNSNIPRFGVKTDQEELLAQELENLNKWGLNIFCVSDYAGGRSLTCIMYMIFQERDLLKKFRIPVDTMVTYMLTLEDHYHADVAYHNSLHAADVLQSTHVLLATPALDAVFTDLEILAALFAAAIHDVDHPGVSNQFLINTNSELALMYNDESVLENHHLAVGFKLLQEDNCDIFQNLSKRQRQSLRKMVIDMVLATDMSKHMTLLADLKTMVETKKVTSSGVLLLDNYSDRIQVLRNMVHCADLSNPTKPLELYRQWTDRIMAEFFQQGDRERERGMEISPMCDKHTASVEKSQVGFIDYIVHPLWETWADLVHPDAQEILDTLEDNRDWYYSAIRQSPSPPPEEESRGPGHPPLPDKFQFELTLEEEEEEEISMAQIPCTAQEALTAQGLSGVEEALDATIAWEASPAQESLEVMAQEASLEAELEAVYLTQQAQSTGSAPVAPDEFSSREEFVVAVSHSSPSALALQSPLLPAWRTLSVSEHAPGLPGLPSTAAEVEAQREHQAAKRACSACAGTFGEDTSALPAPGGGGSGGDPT

[7] = biological target: T5, Prostaglandin G/H synthase 1 (Homo sapiens, UniProt P23219); type: functional
T5 sequence (P23219 whole entry): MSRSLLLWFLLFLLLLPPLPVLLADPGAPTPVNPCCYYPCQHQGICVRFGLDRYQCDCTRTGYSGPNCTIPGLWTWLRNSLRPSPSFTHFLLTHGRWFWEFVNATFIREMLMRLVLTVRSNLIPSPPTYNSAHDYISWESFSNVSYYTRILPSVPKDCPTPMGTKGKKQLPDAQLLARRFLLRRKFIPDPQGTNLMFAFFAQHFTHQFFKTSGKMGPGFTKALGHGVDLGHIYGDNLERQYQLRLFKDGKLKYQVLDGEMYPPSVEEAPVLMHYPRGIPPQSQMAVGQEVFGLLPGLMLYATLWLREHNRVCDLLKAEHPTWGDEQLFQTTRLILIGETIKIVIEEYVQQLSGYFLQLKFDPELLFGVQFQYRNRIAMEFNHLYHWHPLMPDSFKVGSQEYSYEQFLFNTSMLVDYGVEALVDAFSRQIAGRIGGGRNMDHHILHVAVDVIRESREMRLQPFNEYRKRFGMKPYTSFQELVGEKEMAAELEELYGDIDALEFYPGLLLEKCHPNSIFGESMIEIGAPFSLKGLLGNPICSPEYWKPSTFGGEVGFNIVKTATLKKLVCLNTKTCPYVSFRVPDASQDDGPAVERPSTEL

[8] = biological target: T5, Prostaglandin G/H synthase 1; type: functional; remark: listed apart in the source
[9] = biological target: Sodium-dependent noradrenaline transporter (Homo sapiens, UniProt P23975)
Chain of Sodium-dependent noradrenaline transporter (P23975 whole entry): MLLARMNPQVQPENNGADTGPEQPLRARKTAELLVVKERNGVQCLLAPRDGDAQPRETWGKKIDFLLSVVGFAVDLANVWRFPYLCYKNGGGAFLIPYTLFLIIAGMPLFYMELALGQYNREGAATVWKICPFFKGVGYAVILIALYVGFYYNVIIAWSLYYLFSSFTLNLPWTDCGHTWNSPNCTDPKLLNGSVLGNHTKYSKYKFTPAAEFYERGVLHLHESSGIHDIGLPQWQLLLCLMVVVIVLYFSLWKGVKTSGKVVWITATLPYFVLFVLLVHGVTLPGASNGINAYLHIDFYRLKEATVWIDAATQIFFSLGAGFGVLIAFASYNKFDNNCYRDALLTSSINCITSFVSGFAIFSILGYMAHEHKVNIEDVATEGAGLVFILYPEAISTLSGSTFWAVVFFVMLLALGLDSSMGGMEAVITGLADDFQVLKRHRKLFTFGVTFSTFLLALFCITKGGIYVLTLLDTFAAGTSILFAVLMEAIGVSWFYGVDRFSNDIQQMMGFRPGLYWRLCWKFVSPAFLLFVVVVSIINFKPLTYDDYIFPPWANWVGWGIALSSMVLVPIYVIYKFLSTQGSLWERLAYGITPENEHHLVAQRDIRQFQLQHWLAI

[10] = biological target: Sodium-dependent serotonin transporter (Homo sapiens, UniProt P31645)
Chain of Sodium-dependent serotonin transporter (P31645 whole entry): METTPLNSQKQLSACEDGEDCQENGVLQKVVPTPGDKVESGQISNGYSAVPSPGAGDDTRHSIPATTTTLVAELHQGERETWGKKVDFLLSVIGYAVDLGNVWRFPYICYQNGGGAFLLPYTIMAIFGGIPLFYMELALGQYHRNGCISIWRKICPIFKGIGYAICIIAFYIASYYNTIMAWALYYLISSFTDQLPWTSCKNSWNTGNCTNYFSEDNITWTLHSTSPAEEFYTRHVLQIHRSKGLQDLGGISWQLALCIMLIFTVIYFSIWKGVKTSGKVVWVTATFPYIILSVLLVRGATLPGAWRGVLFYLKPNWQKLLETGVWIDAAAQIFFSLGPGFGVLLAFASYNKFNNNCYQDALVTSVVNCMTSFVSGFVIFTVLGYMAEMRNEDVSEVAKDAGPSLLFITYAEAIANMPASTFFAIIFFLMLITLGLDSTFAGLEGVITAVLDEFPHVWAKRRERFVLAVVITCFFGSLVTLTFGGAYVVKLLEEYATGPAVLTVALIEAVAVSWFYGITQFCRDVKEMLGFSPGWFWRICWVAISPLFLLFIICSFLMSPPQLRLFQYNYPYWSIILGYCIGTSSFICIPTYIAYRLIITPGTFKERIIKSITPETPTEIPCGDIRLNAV

Thromboxane A2 receptor = biological target: T6, Thromboxane A2 receptor (Homo sapiens, UniProt P21731); type: functional, cell-based
T6 sequence (P21731 whole entry): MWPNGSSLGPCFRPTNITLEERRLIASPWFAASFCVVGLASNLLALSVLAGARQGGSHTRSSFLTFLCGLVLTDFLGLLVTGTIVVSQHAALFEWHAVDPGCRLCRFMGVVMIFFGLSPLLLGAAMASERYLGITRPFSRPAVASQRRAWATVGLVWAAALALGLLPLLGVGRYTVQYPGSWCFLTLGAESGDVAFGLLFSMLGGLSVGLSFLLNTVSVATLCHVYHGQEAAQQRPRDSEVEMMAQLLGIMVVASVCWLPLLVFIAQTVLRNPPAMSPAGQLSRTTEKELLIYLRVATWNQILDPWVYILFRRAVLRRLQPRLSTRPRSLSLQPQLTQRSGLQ

[11] = biological target: Voltage-gated inwardly rectifying potassium channel KCNH2 (Homo sapiens, UniProt Q12809); type: functional; settings: read-out: AC50
Note: assay procedure not described here.

Chain of Acetylcholinesterase (P22303 whole entry): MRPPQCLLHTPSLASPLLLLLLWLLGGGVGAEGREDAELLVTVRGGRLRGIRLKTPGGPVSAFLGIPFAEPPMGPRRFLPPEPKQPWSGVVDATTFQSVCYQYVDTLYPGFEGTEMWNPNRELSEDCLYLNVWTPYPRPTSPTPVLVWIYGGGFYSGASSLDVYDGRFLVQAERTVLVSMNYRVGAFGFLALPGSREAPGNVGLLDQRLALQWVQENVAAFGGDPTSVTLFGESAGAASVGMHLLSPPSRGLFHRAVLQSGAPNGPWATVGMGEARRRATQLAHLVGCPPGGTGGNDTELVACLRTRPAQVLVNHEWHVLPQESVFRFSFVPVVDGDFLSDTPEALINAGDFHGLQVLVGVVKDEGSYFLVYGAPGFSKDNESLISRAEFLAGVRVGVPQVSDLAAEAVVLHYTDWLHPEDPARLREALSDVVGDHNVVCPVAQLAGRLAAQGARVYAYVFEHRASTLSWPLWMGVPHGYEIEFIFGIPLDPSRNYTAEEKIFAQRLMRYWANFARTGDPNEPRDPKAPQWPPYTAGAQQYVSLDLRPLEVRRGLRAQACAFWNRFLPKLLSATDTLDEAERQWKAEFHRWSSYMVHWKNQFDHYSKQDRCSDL

Row | Compound | AC50 (Acetylcholinesterase) [µM] | AC50 [1] [µM] | AC50 [2] [µM] | AC50 (D(3) dopamine receptor) [µM] | AC50 (Prothrombin) [µM] | AC50 [3] [µM] | AC50 [4] [µM] | AC50 [5] [µM] | AC50 [6] [µM] | AC50 [7] [µM] | AC50 [8] [µM] | AC50 [9] [µM] | AC50 [10] [µM] | AC50 (Thromboxane A2 receptor) [µM] | AC50 [11] [µM]
1 | CC1(C)CCC(C)(C)c2cc(NC(=O)c3ccc(C(=O)O)cc3)ccc21 [TAMIBAROTENE] | > 30 | > 30 | > 30 | > 30 | > 30 | > 30 | > 30 | > 30 | > 30 | > 30 | > 30 | > 30 | > 30 | 28.7 | 
2 | CC(=O)Nc1ccc(/C=N/NC(N)=S)cc1 [AMITHIOZONE] | > 30 | > 30 | > 30 | > 30 | > 30 | > 30 | > 10 | > 30 | > 30 | > 30 | > 30 | > 30 | > 30 | > 30 | 
3 | CC(=O)OC1CN2CCC1CC2 (stereo not drawn) [ACECLIDINE] | > 30 | > 30 |  | > 30 | > 30 | > 30 | > 30 | > 30 | > 30 | > 30 | > 30 | > 30 | > 30 | > 30 | 
4 | CC(C)(C)NCC(O)COc1ccccc1C#N (stereo not drawn) [BUNITROLOL] | > 30 | 27.1 | > 30 | > 30 | > 30 | 0.0086 | 10.4 | > 30 | > 30 | > 30 | > 30 | > 30 | > 30 | > 30 | > 30
5 | COc1ccc(C(=O)c2ccccc2)c(O)c1 [OXYBENZONE] | > 30 | > 30 | > 30 | > 30 | > 30 | > 30 | > 30 | > 30 | 18.1 | > 30 | > 30 | 11.6 | > 30 | > 30 | > 30
6 | C[C@@H](O)[C@H]1C(=O)N2C(C(=O)O)=C(S[C@@H]3CN[C@H](C(=O)Nc4cccc(C(=O)O)c4)C3)[C@H](C)[C@H]12 | > 30 | > 30 | > 30 | > 30 | > 30 | > 30 | > 30 | > 30 | 1.62 | 10.2 | 19.9 | > 30 | > 30 | > 30 | 
7 | CC(=O)OCC(=O)[C@@]1(O)CC[C@H]2[C@@H]3C[C@H](C)C4=CC(=O)C=C[C@]4(C)[C@H]3[C@@H](O)C[C@@]21C [METHYLPREDNISOLONE ACETATE] | > 30 | > 30 | > 30 | > 30 | 11.9 | > 30 | > 30 | > 30 | > 30 | > 30 | > 30 | > 30 | > 30 | > 30 | 
8 | COc1c(OCCCN2CCOCC2)ccc2c1N=C(NC(=O)c1cnc(N)nc1)N1CCN=C21 [COPANLISIB] | > 30 | > 30 | 5.64 | > 30 | > 30 | > 30 | > 30 | > 30 | > 30 | > 30 | > 30 | > 30 | > 30 | > 30 | 
9 | CC(=O)O[C@]1(C(C)=O)CC[C@H]2[C@@H]3CCC4=CC(=O)CCC4=C3[C@@H](c3ccc(N(C)C)cc3)C[C@@]21C [ULIPRISTAL ACETATE] | > 30 | > 30 | > 30 | > 30 | > 30 | > 30 | > 30 | > 30 | > 30 | > 30 | > 30 | > 30 | > 30 | > 30 | 
10 | Cn1c(CCCC(=O)O)nc2cc(N(CCCl)CCCl)ccc21 [BENDAMUSTINE] | > 30 | > 30 | > 30 | > 30 | > 30 | > 30 | > 30 | > 30 | > 30 | > 30 | 5.8 | > 30 | > 30 | > 30 | 
11 | OC(CN1CCCCC1)c1cc(-c2ccccc2)on1 (stereo not drawn) [PERISOXAL] | > 30 | > 30 | 16.9 | 15.2 | > 30 | > 30 | > 30 | > 30 | > 30 | > 30 | > 30 | 21.9 | > 30 | > 30 | 
12 | CSCC[C@H](N)C(=O)O [METHIONINE] | > 30 | > 30 | > 30 | > 30 | > 30 | > 30 | > 30 | > 30 | > 30 | > 30 | > 30 | > 30 | > 30 | > 30 | 
13 | CNC(=O)c1cnn(-c2nc(N)c3ncn([C@@H]4O[C@H](CO)[C@@H](O)[C@H]4O)c3n2)c1 [REGADENOSON ANHYDROUS] | > 30 | > 30 | > 30 | > 30 | > 30 | > 30 | > 30 | > 30 | > 30 | > 30 | > 30 | > 30 | > 30 | > 30 | 

Reference: ChEMBL document CHEMBL5291721, “A preclinical secondary pharmacology resource illuminates target-adverse drug reaction associations of marketed drugs” (Nat Commun, 2023)
